Measurements published in paper PMC3103407 (2011).

T1: Gap1p (Saccharomyces cerevisiae, UniProt P19145, A297V/K16R/K9R)
T1 sequence (P19145 1-602 K9R/K16R/A297V): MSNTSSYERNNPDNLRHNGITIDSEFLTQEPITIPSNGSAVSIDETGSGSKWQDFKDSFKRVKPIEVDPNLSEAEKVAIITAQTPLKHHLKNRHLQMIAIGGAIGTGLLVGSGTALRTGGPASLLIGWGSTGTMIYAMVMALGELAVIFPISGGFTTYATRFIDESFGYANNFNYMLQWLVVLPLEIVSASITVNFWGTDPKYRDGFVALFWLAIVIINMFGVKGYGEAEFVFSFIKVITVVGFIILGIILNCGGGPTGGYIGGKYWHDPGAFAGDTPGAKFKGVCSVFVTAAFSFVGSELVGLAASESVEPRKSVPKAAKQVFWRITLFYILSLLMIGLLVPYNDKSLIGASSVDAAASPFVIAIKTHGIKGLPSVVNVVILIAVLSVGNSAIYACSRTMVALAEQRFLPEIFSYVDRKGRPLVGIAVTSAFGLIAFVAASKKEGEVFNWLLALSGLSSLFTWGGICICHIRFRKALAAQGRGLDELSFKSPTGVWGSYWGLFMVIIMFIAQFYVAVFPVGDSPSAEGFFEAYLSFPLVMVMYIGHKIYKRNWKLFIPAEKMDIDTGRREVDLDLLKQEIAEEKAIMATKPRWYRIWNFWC

T2: Gap1p (Saccharomyces cerevisiae, UniProt P19145, K16R/K9R)
T2 sequence (P19145 1-602 K9R/K16R): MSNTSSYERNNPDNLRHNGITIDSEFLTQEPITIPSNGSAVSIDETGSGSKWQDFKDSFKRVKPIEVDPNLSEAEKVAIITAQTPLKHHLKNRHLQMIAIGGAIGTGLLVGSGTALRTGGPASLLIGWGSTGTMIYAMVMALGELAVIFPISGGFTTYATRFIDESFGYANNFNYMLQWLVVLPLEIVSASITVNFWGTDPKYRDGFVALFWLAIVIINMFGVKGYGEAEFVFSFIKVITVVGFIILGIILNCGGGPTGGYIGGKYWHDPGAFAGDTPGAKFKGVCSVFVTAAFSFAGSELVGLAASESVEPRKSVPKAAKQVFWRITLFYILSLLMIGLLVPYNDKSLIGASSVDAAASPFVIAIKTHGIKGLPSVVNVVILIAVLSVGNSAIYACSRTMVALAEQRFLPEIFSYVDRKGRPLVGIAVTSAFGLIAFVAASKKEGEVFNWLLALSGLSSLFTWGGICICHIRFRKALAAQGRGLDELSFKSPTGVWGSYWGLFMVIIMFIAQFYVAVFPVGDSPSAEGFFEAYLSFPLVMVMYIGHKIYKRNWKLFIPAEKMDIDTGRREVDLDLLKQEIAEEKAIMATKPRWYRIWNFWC


Legend:
[1] = molecular target: T1, Gap1p; assay: competitive inhibition of […]-glycine uptake in yeast cells; type: cell-based
[2] = molecular target: T2, Gap1p; assay: as above; type: cell-based
[3] = substrate: NCC(=O)O; assay: cells, lysate or membranes; type: cell-based, Saccharomyces cerevisiae; details: active site (amino acid binding pocket)

| Molecule | Ki [1] [µM] | Ki [2] [µM] | Km [3] [µM] |
| --- | --- | --- | --- |
| NC(=O)NCCC[C@H](N)C(=O)O [citrulline] | ~35.6 | ~36.6 | – |
| Gap1p (Saccharomyces cerevisiae S288C; K16R/K9R) (protein) MSNTSSYERNNPDNLRHNGITIDSEFLTQEPITIPSNGSAVSIDETGSGSKWQDFKDSFKRVKPIEVDPNLSEAEKVAIITAQTPLKHHLKNRHLQMIAIGGAIGTGLLVGSGTALRTGGPASLLIGWGSTGTMIYAMVMALGELAVIFPISGGFTTYATRFIDESFGYANNFNYMLQWLVVLPLEIVSASITVNFWGTDPKYRDGFVALFWLAIVIINMFGVKGYGEAEFVFSFIKVITVVGFIILGIILNCGGGPTGGYIGGKYWHDPGAFAGDTPGAKFKGVCSVFVTAAFSFAGSELVGLAASESVEPRKSVPKAAKQVFWRITLFYILSLLMIGLLVPYNDKSLIGASSVDAAASPFVIAIKTHGIKGLPSVVNVVILIAVLSVGNSAIYACSRTMVALAEQRFLPEIFSYVDRKGRPLVGIAVTSAFGLIAFVAASKKEGEVFNWLLALSGLSSLFTWGGICICHIRFRKALAAQGRGLDELSFKSPTGVWGSYWGLFMVIIMFIAQFYVAVFPVGDSPSAEGFFEAYLSFPLVMVMYIGHKIYKRNWKLFIPAEKMDIDTGRREVDLDLLKQEIAEEKAIMATKPRWYRIWNFWC | – | – | 20.0 ± 5.3 |
| Gap1p (Saccharomyces cerevisiae S288C; A297V/K16R/K9R) (protein) MSNTSSYERNNPDNLRHNGITIDSEFLTQEPITIPSNGSAVSIDETGSGSKWQDFKDSFKRVKPIEVDPNLSEAEKVAIITAQTPLKHHLKNRHLQMIAIGGAIGTGLLVGSGTALRTGGPASLLIGWGSTGTMIYAMVMALGELAVIFPISGGFTTYATRFIDESFGYANNFNYMLQWLVVLPLEIVSASITVNFWGTDPKYRDGFVALFWLAIVIINMFGVKGYGEAEFVFSFIKVITVVGFIILGIILNCGGGPTGGYIGGKYWHDPGAFAGDTPGAKFKGVCSVFVTAAFSFVGSELVGLAASESVEPRKSVPKAAKQVFWRITLFYILSLLMIGLLVPYNDKSLIGASSVDAAASPFVIAIKTHGIKGLPSVVNVVILIAVLSVGNSAIYACSRTMVALAEQRFLPEIFSYVDRKGRPLVGIAVTSAFGLIAFVAASKKEGEVFNWLLALSGLSSLFTWGGICICHIRFRKALAAQGRGLDELSFKSPTGVWGSYWGLFMVIIMFIAQFYVAVFPVGDSPSAEGFFEAYLSFPLVMVMYIGHKIYKRNWKLFIPAEKMDIDTGRREVDLDLLKQEIAEEKAIMATKPRWYRIWNFWC | – | – | 12.7 ± 1.12 |
